These results are taken from patent publication US6372209B1, “Vaginal lactobacillus medicant” (Gyne Logix, Inc., priority 1997, dated 2002).

The nature of data set [1]: Purity and genetic fingerprint (Rep PCR) of suppository lots. As for the experimental part: (1.1) Purity of the strain: The purity of the suppository strain (i.e., lack of presence of contaminating organisms in a culture) was confirmed by specifically distinguishing the suppository strain from other strains using DNA fingerprinting techniques. DNA fingerprinting was performed by Repetitive Sequence Polymerase Chain Reaction (Rep PCR). In order to determine whether the Rep PCR method could distinguish the suppository strain (CTV-05) from endogenous L. crispatus, 40 strains of L. crispatus were recovered from the vagina of women of child-bearing age and compared to CTV-05. L. crispatus species identity was determined using whole chromosomal DNA homology to control strain L. crispatus ATCC 33197. […] The suppository strain (CTV-05) was distinguished from the others by four bands in the 2500-1500 base pair region. In this region, the CTV-05 fingerprint consists of intense bands at 2500 and 1500 and less amplified bands at 2000 and 1736 base pairs (data not shown).
Six different lots of L. crispatus CTV-05 prepared over a 2 year period were evaluated for purity and stability of the genetic fingerprint. […] Further, there has been no lot-to-lot variability in the “fingerprint” of the DNA of the suppository strain (data not shown).

The test system of the next data set is H2O2 production. The experiment in a line: Production of H2O2 (TMB medium or EM strips). The conditions noted are these: gelatin capsule suppository, storage period up to 25 months. The procedure:
(1.4) Production of H2O2: Strains were inoculated onto tetramethylbenzidine medium (TMB) and incubated at 37° C. for 2-3 days under anaerobic conditions. H2O2-producing colonies produce a blue pigment upon exposure to ambient air. Alternatively, H2O2-detecting strips from EM Science were used. The reagent impregnated portion of the strip was applied to a Lactobacillus colony and the intensity of the resulting blue color served as a quantitative measure of H2O2 concentration.

For the substance Lactobacillus crispatus CTV-05, in data set [1] (six lots prepared over a 2 year period, enriched chopped meat broth, anaerobic), the contaminants in lots result is “free of contaminants”. Besides, the “genetic fingerprint (Rep PCR) between lots” value in data set [1] (small scale and scale-up lots) was “identical fingerprints”. Moreover, in the data set on H2O2 production, the “H2O2 production during storage” value is recorded as “remained stable”.
